Data from patent US20070105721A1, “Vinylogous 4-Hpyrones and their use in promoting plant growth” (priority 2003, published 2007).

Assays:
Assay type in all cases: in vivo
[1] = system: Grand Rapids Lettuce seeds (Waltham strain); assay: Grand Rapids bioassay; conditions: for Germination, Grand Rapids: compounds isolated from smoke, mean (SEM)
Description: Grand Rapids Lettuce seeds (Waltham strain) were obtained from R.B. Dessert Seed Co. and were frozen in sachets until use. For testing of aqueous samples, 2.5 mL of test solution was applied to three replicates of 40-50 seeds in Petri dishes (90 mm) lined with two layers of Whatman No. 1 filter paper (7 cm). Millipore filtered water (MP water) was used as a control for each experiment and dilutions of each sample were used to ensure the optimum concentration range for activity. Fractions were reconstituted to their original concentration (before fractionation) and dilutions were made using MP water. Petri dishes were sealed with a layer of plastic wrap, and stored in a light proof container. All manipulations involving the seed were carried out in a dark room and germinants, based on the appearance of a radicle, were scored after 48 hours incubation.

Stylidium affine seeds = assay: Native bioassay; conditions: compounds isolated from smoke; mean (SEM)
Description: (§1) Conostylis aculeata and Stylidium affine seeds were obtained from Nindethana seed service and stored before use. For testing of aqueous samples, three replicates of 20-30 sterilised seeds were added to UV sterilised petri dishes (90 mm), containing two Whatman No. 1 filter papers (7 cm) moistened with the filtered test solution (2.5 mL, 0.22 μm). MP water was used as a control for each experiment and dilutions of each sample were used to ensure the optimum concentration range for activity. Petri dishes were then sealed with parafilm and incubated in the dark at 20±1° C. The seeds were scored on a weekly basis with optimum germination achieved between 4-6 weeks.

[2] = system: Conostylis aculeata seeds; assay: Native bioassay; conditions: compounds isolated from smoke; mean (SEM)
Description: as §1

[3] = 100 ppm, * = inhibits germination at this concentration

Compound | Germination of formula (5) analogues ([1]; 1 ppm) | Germination of formula (5) analogues ([1]; 10 ppm) | Germination of formula (5) analogues ([1]; 100 ppb) | Germination of formula (5) analogues [1, 3] | Germination, Stylidium affine (Stylidium affine seeds) [%] | Germination, Conostylis aculeata [2] | Germination, Grand Rapids [1]
CCOC(=O)C=C1C=COC=C1 [Compound 5a, ethyl 2-(4H-pyran-4-ylidene) acetate] | 86.7 (±7.4) | 94.7 (±0.4) | 66.9 (±10.2) | 99.1 (±0.9) |  |  | 
CCOC(=O)C(SC(C)=O)=C1C=COC=C1 [Compound 5b, ethyl 2-(acetylthio)-2-(4H-pyran-4-ylidene) acetate] | 64.7 (±4.5) | 82.6 (±3.4) | 54.3 (±7.2) | *39.4 (±2.7) |  |  | 
CC1=CC(=CC(=O)c2ccccc2)C=C(C)O1 [Compound 5c, 2-(2,6-dimethyl-4H-pyran-4-ylidene)-1-phenylethanone] | 54.3 (±3.1) | 69.3 (±4.4) | 53.2 (±4.1) | 74.1 (±6.7) |  |  | 
O=C1C=C(c2ccco2)CO1 [Compound L-1, 2,3′-bifuran-5′(2′H)-one] |  |  |  |  | 0 | 7.5 (1.3) % | 42.4 (6.6) %
Cc1cc(=O)oc2ccoc12 [Compound L-3, 7-methyl-5H-furo[3,2-b]pyran-5-one] |  |  |  |  | 0 | 11.6 (2.5) % | 42.1 (1.5) %
